Test results from ChEMBL document CHEMBL3758166, “Fragment-based discovery of DNA gyrase inhibitors targeting the ATPase subunit of GyrB” (Bioorg Med Chem Lett, 2016).

How the values were obtained:
DNA gyrase subunit B = DNA gyrase subunit B (Staphylococcus aureus, UniProt P0A0K8); experiment: Binding affinity to full length Staphylococcus aureus GyrB by STD-NMR spectroscopic analysis
[1] = Binding affinity to Escherichia coli ParE by STD-NMR Spectroscopic analysis
DNA gyrase = DNA gyrase (Staphylococcus aureus, UniProt P0A0K8+P20831); experiment: Inhibition of Staphylococcus aureus DNA gyrase ATPase activity using pBR322 DNA as substrate after 30 mins by fluorescence polarization assay; assay type: protein-complex assay

IC50 (DNA gyrase subunit B) | IC50 [1] | IC50 (DNA gyrase) | IC50 ([1]; read-out: IC50) | SMILES
840 µM | Not Active |  |  | Cc1cc(O)[nH]c2nnc(-c3ccccc3)c1-2
840 µM | Not Active |  |  | Cc1n[nH]c2c1C(c1ccccc1F)CC(=O)N2 (configuration not stated)
50 µM | Not Active |  |  | Nc1nc(O)cc(-c2ccccc2)n1
50 µM |  | 265 nM |  | O=c1ccc2c(-c3cnc(-c4cccnc4)s3)n[nH]c2[nH]1
50 µM |  | 3250 nM |  | Cc1cc(=O)[nH]c2[nH]nc(-c3cnc(-c4cccnc4)s3)c12
50 µM |  |  | 50 µM | CCCC(=O)Nc1sccc1C(N)=O
50 µM |  | 1320 nM |  | O=c1cc(-c2ccccc2)c2c(-c3cnc(-c4cccnc4)s3)n[nH]c2[nH]1
840 µM |  |  | 50 µM | O=C1Nc2ccccc2/C1=C\c1cccnc1
50 µM |  |  |  | O=c1[nH]cnc2scc(-c3cccs3)c12
